Test results published in patent US10640507B2, “PBD antibacterial agents” (KING'S COLLEGE LONDON, priority 2015, dated 2020).
pIC50: −log10 of the molar value. Values after ≈ are worked out from the molar mass of the structure shown. Like-named read-outs stand apart in the source and are kept apart here.

Tests used:
Format in all cases: cell-based
[1] = test system: E. faecium VRE NCTC 12204; experiment: General MIC protocol, Gram positive panel
Experimental: (§1) General Minimum Inhibitory Concentration (MIC) Protocol
(§2) 1. Grow up cultures of bacterial strains to be tested overnight.
(§3) 2. Dilute down overnight cultures to concentration of 1×10^6 bacteria/ml (OD0.01) in Tryptic soy broth (TSB).
(§4) 3. Add 100 μl of TSB media to column 2-column 12 in 96 well plate (keeping column 1 clear).
(§5) 4. Make up compound to a concentration of 64 μg/ml in water (or alternatively to twice the chosen maximum concentration to be tested).
(§6) 5. Add 100 μl of antibiotic solution to the 1st and 2nd columns.
(§7) 6. Using a multichannel pipette take 100 μl from the 2nd column wells and pipette into 3rd column wells and repeat down the 96 well plate (remembering to include controls i.e. uninfected media and media with no antibiotic).
(§8) 7. To each well (except uninfected control row H) add 100 μl of bacterially infected media at a concentration of 1×10^6/ml.
(§9) 8. This dilutes down the concentration of the antibiotic by half (top dose is therefore 32 μg/ml in column 1) and also gives you a starting bacterial concentration of 5×10^5/ml.
(§10) 9. Wrap plate with parafilm to prevent evaporation.
(§11) 10. Leave at desired temperature (37° C. unless specified elsewhere) for 20 hours.
(§12) 11. Next day check plates for growth and measure optical density (i.e. absorbance) at a wavelength of 600 nm (OD600).
(§13) An example of such a plate is shown in FIG. 1 where column A represents wells that receive the top dose 100 μl; column B represents wells that receive the top dose 100 μl+100 μl TSB; and column C represents wells that receive 100 μl TSB. Row H which is marked by a box labelled D represents a blank where the cells receive no bacteria.

EMRSA-16 = experiment: General MIC protocol, Gram positive panel
Experimental: as §1, §2, §3, §4, §5, §6, §7, §8, §9, §10, §11, §12, §13

[2] = test system: methicillin sensitive S. aureus ATTC 9144 (NCTC 6571); experiment: General MIC protocol, Gram positive panel; details: Staphylococcus aureus, MSSA / NCTC 6571; MSSA 9144
Experimental: as §1, §2, §3, §4, §5, §6, §7, §8, §9, §10, §11, §12, §13

E. faecalis VSE NCTC 775 = experiment: General MIC protocol, Gram positive panel; details: Enterococcus faecalis, NCTC775; VSE 775
Experimental: as §1, §2, §3, §4, §5, §6, §7, §8, §9, §10, §11, §12, §13

[3] = test system: E. faecalis VRE NCTC 12201; experiment: General MIC protocol, Gram positive panel
Experimental: as §1, §2, §3, §4, §5, §6, §7, §8, §9, §10, §11, §12, §13

EMRSA-15 = experiment: General MIC protocol, Gram positive panel
Experimental: as §1, §2, §3, §4, §5, §6, §7, §8, §9, §10, §11, §12, §13

[4] = test system: HeLa (Cervical cancer cell line); experiment: MTT cytotoxicity assay; details: Homo sapiens, read-out: IC50 HeLa (Cervical cancer cell line)
Experimental: (§14) Two immortalised human cell lines, HeLa and WI38 were used for cytotoxicity screening of the compounds. HeLa is a human cervical cancer cell line and WI38 is a normal healthy cell line. The cell lines were obtained from the American Type Culture Collection. The cell-lines were maintained in monolayer culture in 75 cm2 flasks (TPP, Switzerland) under a humidified 5% CO2 atmosphere at 37° C. The HeLa cell line was maintained in Dulbecco's Modified Eagles Media (DMEM; Invitrogen) supplemented with foetal bovine serum (10% v/v; Invitrogen), L-glutamine (2 mM; Invitrogen), non-essential amino acids (1×; Invitrogen) and Penicillin-Streptomycin (1% v/v, Invitrogen). For WI38, Eagle's Minimum Essential Medium, and Penicillin-Streptomycin (1% v/v, Invitrogen) and foetal bovine serum (10%, nvitrogen) was used. For passaging, cells were washed with phosphate buffered saline [PBS] (GIBCO 14040, Invitrogen, UK), incubated with trypsine (GIBCO 25300, Invitrogen, UK), and re-seeded into fresh medium. For seeding, cells were counted using a Neubauer haemocytometer (Assistant, Germany) by microscopy (Nikon, USA) on a non-adherent suspension of cells that were washed in PBS, trypsinised, centrifuged at 8° C. at 8000 rpm for 5 min and re-suspended in fresh medium.
(§15) The cells were grown in normal cell culture conditions at 37° C. under a 5% CO2 humidified atmosphere using appropriate medium. The cell count was adjusted to 10^5 cells/ml/ and 20,000 cells were added per well. The cells were incubated for 24 hours and 1 μl of the appropriate inhibitor concentrations were to the wells in triplicates. After 24 h of continuous exposure to each compound, the cytotoxicity was determined using the MIT (3-(4,5-Dimethylthiazol-2-yl)-2,5-diphenyltetrazolium bromide) (Lancaster Synthesis Ltd, UK) colorimetric assay. Absorbance was quantified by spectrophotometry at λ=570 nm (Envision Plate Reader, PerkinElmer, USA). IC50 values were calculated by a dose-response analysis using the Prism Graphpad Prism® software. The cytotoxicity results are shown below in Table 12.

WI38 (Healthy cell line) = experiment: MTT cytotoxicity assay; details: Homo sapiens, read-out: IC50 WI38 (Healthy cell line)
Experimental: as §14, §15

K. pneumonia NCTC 13368 = experiment: General MIC protocol, Gram negative; details: Klebsiella pneumoniae, NCTC13368
Experimental: as §1, §2, §3, §4, §5, §6, §7, §8, §9, §10, §11, §12, §13

A. baumannii AYE = experiment: General MIC protocol, Gram negative; details: Acinetobacter baumannii
Experimental: as §1, §2, §3, §4, §5, §6, §7, §8, §9, §10, §11, §12, §13

A. baumannii NCTC 17978 = experiment: General MIC protocol, Gram negative; details: Acinetobacter baumannii, NCTC17978
Experimental: as §1, §2, §3, §4, §5, §6, §7, §8, §9, §10, §11, §12, §13

P. aeruginosa NCTC 13437 = experiment: General MIC protocol, Gram negative; details: Pseudomonas aeruginosa, NCTC13437
Experimental: as §1, §2, §3, §4, §5, §6, §7, §8, §9, §10, §11, §12, §13

K. pneumonia M6 = experiment: General MIC protocol, Gram negative; details: Klebsiella pneumoniae; KP-M6
Experimental: as §1, §2, §3, §4, §5, §6, §7, §8, §9, §10, §11, §12, §13

P. aeruginosa PA01 = experiment: General MIC protocol, Gram negative; details: Pseudomonas aeruginosa, PA01, PA01
Experimental: as §1, §2, §3, §4, §5, §6, §7, §8, §9, §10, §11, §12, §13

[5] = WI-38, MTT, 24 h continuous exposure, highest concentration tested 20 μM

Compound	MIC [1] [µg/mL]	MIC (EMRSA-16) [µg/mL]	MIC [2] [µg/mL]	MIC (E. faecalis VSE NCTC 775) [µg/mL]	MIC [3] [µg/mL]	MIC (EMRSA-15) [µg/mL]	pIC50 ([4]; 24 h)	pIC50 (WI38 (Healthy cell line); WI-38, 24 h)	MIC (K. pneumonia NCTC 13368) [µg/mL]	MIC (A. baumannii AYE) [µg/mL]	MIC (A. baumannii NCTC 17978) [µg/mL]	MIC (P. aeruginosa NCTC 13437) [µg/mL]	MIC (K. pneumonia M6) [µg/mL]	MIC (P. aeruginosa PA01) [µg/mL]	pIC50 ([4]; MTT, 24 h continuous exposure)	pIC50 (WI38 (Healthy cell line); [5])
COc1cc2c(cc1OCCCC(=O)Nc1cc(C(=O)Nc3ccc4oc(C(=O)N5CCOCC5)cc4c3)n(C)c1)N=C[C@@H]1CCCN1C2=O [PP-A147, (S)-4-(4-((7-methoxy-5-oxo-2,3,5,11a-tetrahydro-1H-benzo[e]pyrrolo[1,2-a][1,4]diazepin-8-yl)oxy)butanamido)-1-methyl-N-(2-(morpholine-4-carbonyl)benzofuran-5-yl)-1H-pyrrole-2-carboxamide]	< 0.125	0.25 (≈ 0.366 µM)	< 0.125	< 0.125	< 0.125	< 0.125	< 4.70	< 4.70	32 to 64 (≈ 46.9 to 93.7 µM)	8 (≈ 11.7 µM)	8 (≈ 11.7 µM)	64 (≈ 93.7 µM)	0.5 to 1 (≈ 0.732 to 1.46 µM)	> 128		
COc1cc2c(cc1OCCCC(=O)Nc1cc(C(=O)Nc3ccc4oc(C(=O)N(C)C)cc4c3)n(C)c1)N=C[C@@H]1CCCN1C2=O [PP-A159, (S)—N-(2-(dimethylcarbamoyl)benzofuran-5-yl)-4-(4-((7-methoxy-5-oxo-2,3,5,11a-tetrahydro-1H-benzo[e]pyrrolo[1,2-a][1,4]-diazepin-8-yl)oxy)butanamido)-1-methyl-1H-pyrrole-2-carboxamide]	< 0.125	< 0.125	< 0.125	< 0.125	0.5 (≈ 0.78 µM)	< 0.125			16 (≈ 25 µM)	4 (≈ 6.24 µM)	4 (≈ 6.24 µM)	32 to 64 (≈ 49.9 to 99.9 µM)	0.5 (≈ 0.78 µM)	128 (≈ 200 µM)	4.73	< 4.70
CCOC(=O)c1nc(NC(=O)c2cc3cc(NC(=O)c4cc(NC(=O)CCCOc5cc6c(cc5OC)C(=O)N5CCC[C@H]5C=N6)cn4C)ccc3s2)cn1C [PP-B14, reference compound]	< 0.125	1 (≈ 1.28 µM)	< 0.125	< 0.125	< 0.125	0.5 (≈ 0.64 µM)			128 (≈ 164 µM)	64 (≈ 82 µM)	64 (≈ 82 µM)	128 (≈ 164 µM)	128 (≈ 164 µM)	> 128		
COc1cc2c(cc1OCCCC(=O)Nc1cc(C(=O)Nc3ccc4sc(C(=O)N5CCSCC5)cc4c3)n(C)c1)N=C[C@@H]1CCCN1C2=O [PP-B15, (S)-4-(4-((7-methoxy-5-oxo-2,3,5,11a-tetrahydro-1H-benzo-[e]pyrrolo[1,2-a][1,4]diazepin-8-yl)oxy)butanamido)-1-methyl-N-(2-(thiomorpholine-4-carbonyl)benzo[b]thiophen-5-yl)-1H-pyrrole-2-carboxamide]	< 0.125	< 0.125	< 0.125	< 0.125	< 0.125	< 0.125			2 (≈ 2.8 µM)	2 (≈ 2.8 µM)	2 (≈ 2.8 µM)	32 (≈ 44.8 µM)	> 128	64 (≈ 89.5 µM)	< 4.70	< 4.70
COc1cc2c(cc1OCCCC(=O)Nc1cc(C(=O)Nc3ccc4sc(C(=O)N5CCOCC5)cc4c3)n(C)c1)N=C[C@@H]1CCCN1C2=O [PP-B16, (S)-4-(4-((7-methoxy-5-oxo-2,3,5,11a-tetrahydro-1H-benzo[e]pyrrolo[1,2-a][1,4]diazepin-8-yl)oxy)butanamido)-1-methyl-N-(2-(morpholine-4-carbonyl)benzo[b]thiophen-5-yl)-1H-pyrrole-2-carboxamide]	< 0.125	0.5 (≈ 0.716 µM)	< 0.125	< 0.125	< 0.125	< 0.125			8 (≈ 11.4 µM)	8 (≈ 11.4 µM)	8 (≈ 11.4 µM)	32 (≈ 45.8 µM)	64 (≈ 91.6 µM)	64 (≈ 91.6 µM)	< 4.70	< 4.70
COC(=O)c1cc(NC(=O)c2cc3cc(NC(=O)c4cc(NC(=O)CCCOc5cc6c(cc5OC)C(=O)N5CCC[C@H]5C=N6)cn4C)ccc3s2)cn1C [PP-B17, reference compound]	< 0.125	0.25 (≈ 0.326 µM)	< 0.125	< 0.125	< 0.125	< 0.125			128 (≈ 167 µM)	32 (≈ 41.8 µM)	8 (≈ 10.4 µM)	64 (≈ 83.6 µM)	128 (≈ 167 µM)	128 (≈ 167 µM)		
COc1cc2c(cc1OCCCC(=O)Nc1cc(C(=O)Nc3ccc4sc(C(=O)N5CCCCC5)cc4c3)n(C)c1)N=C[C@@H]1CCCN1C2=O [PP-B22, (S)-4-(4-((7-methoxy-5-oxo-2,3,5,11a-tetrahydro-1H-benzo-[e]pyrrolo[1,2-a][1,4]diazepin-8-yl)oxy)butanamido)-1-methyl-N-(2-(piperidine-1-carbonyl)benzo[b]thiophen-5-yl)-1H-pyrrole-2-carboxamide]	< 0.125	1 (≈ 1.44 µM)	< 0.125	0.25 (≈ 0.359 µM)	< 0.125	0.5 (≈ 0.718 µM)			128 (≈ 184 µM)	8 (≈ 11.5 µM)	8 (≈ 11.5 µM)	64 (≈ 91.8 µM)	128 (≈ 184 µM)	128 (≈ 184 µM)	< 4.70	< 4.70
COc1cc2c(cc1OCCCC(=O)Nc1cc(C(=O)Nc3ccc4oc(C(=O)N5CCCCC5)cc4c3)n(C)c1)N=C[C@@H]1CCCN1C2=O [PP-B26, (S)-4-(4-((7-methoxy-5-oxo-2,3,5,11a-tetrahydro-1H-benzo-[e]pyrrolo[1,2-a][1,4]diazepin-8-yl)oxy)butanamido)-1-methyl-N-(2-(piperidine-1-carbonyl)benzofuran-5-yl)-1H-pyrrole-2-carboxamide]	< 0.125	0.5 (≈ 0.734 µM)	< 0.125	0.25 (≈ 0.367 µM)	< 0.125	0.25 (≈ 0.367 µM)			64 (≈ 94 µM)	2 (≈ 2.94 µM)	2 (≈ 2.94 µM)	32 (≈ 47 µM)	8 (≈ 11.8 µM)	128 (≈ 188 µM)	< 4.70	< 4.70
